Experimental data as given in patent US9061060B2, “Deuterated benzylbenzene derivatives and methods of use” (Theracos Inc., priority 2008, dated 2015).

Key:
CYP1A2 = biological target: T1, CYP1A2 (Homo sapiens, UniProt P05177); assay: P450-Glo CYP screening kit, CYP1A2 inhibition; type: in vitro ADME; conditions: luminescence, read-out: IC50 1A2
T1 construct: purchased Promega
T1 sequence (P05177 1-516): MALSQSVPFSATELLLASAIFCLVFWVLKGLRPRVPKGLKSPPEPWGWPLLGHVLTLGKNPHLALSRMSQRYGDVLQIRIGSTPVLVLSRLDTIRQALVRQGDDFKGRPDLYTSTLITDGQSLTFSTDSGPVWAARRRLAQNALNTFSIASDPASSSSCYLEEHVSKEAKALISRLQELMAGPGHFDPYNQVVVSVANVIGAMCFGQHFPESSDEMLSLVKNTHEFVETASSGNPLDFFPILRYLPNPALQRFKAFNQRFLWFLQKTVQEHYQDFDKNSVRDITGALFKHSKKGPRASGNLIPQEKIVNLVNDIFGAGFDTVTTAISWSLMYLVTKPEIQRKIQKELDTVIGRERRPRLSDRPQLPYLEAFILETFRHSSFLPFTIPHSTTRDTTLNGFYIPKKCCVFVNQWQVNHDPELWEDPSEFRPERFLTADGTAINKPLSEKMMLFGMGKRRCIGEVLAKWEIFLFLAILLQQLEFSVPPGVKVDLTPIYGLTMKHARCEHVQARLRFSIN
Text: (§1) P450-Glo™ CYP Screening Kits for CYP1A2, CYP3A4 and CYP2C19 were purchased from Promega. […] Luminescence was quantified using a Victor 3 spectrophotometer (PerkinElmer).

CYP3A4 = biological target: T2, CYP3A4 (Homo sapiens, UniProt P08684); assay: P450-Glo CYP screening kit, CYP3A4 inhibition; type: in vitro ADME; conditions: luminescence, read-out: IC50 3A4
T2 construct: purchased Promega
Text: as §1

CYP2C19 = biological target: T3, CYP2C19 (Homo sapiens, UniProt P33261); assay: P450-Glo CYP screening kit, CYP2C19 inhibition; type: in vitro ADME; conditions: luminescence, read-out: IC50 2C19
T3 construct: purchased Promega
Text: as §1

beagle dogs = assay: Urinary glucose excretion in beagle dogs; type: in vivo; conditions: 0.03 mg/kg oral, glucose 2 g/kg 1 h post dose; for Urinary Glucose Excretion in Dogs, 0-8 h (mean ± SD): 0-8 h (Table 4); for Urinary Glucose Excretion in Dogs, 0-24 h (mean ± SD): 0-24 h (Table 4)
Experimental: Each test compound was dissolved in 10% PEG400 and administered orally to overnight-fasted beagle dogs by gavage at the dose level of 0.03 mg/kg. Control dogs were given 10% PEG400 only. One hour post dosing, glucose solution (2 g/kg, 5 mL/kg) was administered by oral gavage. Urine was collected within metabolic cages from 0 to 8 hours, and 8 to 24 hours post-dosing for urine volume and glucose measurement. Food was removed 16 hours before dosing and then provided 3 hours after dosing. Water was supplied ad libitum. The concentration of urinary glucose was determined at 8 hours and 24 hours post-dose using a biochemistry analyzer.

[1] = Pharmacokinetic parameters in SD rats; type: in vivo, Sprague-Dawley rats; conditions: single oral 3 mg/kg in 30% PEG400, plasma; for CL/F / AUC(0-t): Sprague-Dawley, rat; for AUC(0-t): read-out: AUC0-t (mean ± SD)
Experimental: The pharmacokinetic study of each test compound was conducted in 4 Sprague-Dawley rats following a single oral administration of 3 mg/kg of the compound. The dose was prepared by dissolving test article in appropriate volume of 30% PEG400. The plasma samples were collected from the orbital plexus at 0.083, 0.25, 0.50, 1.0, 2.0, 4.0, 6.0, 8.0, 12 and 24 hours post dose, and the plasma concentrations were determined by a developed LC-MS/MS method.

[2] = Metabolism in SD rats: distribution of metabolites in urine; type: in vivo; conditions: male SD rats, 50 mg/kg oral, five consecutive days, HPLC
Experimental: Each test compound was dissolved in 30% PEG400 and administered orally to male SD rats by gavages at the dose level of 50 mg/kg (when using co-crystals, the weight calculation was based on free drug) for five consecutive days. Control rats were given 30% PEG400 only. All rats were housed in metabolic cages individually. Food and water were supplied ad libitum. Clinical observations (with attention to diarrhea symptoms) were performed twice daily. Food and water consumption were determined daily. Urine was collected pre-determined intervals: pre-dose, 0-4 hours, 4-8 hours, and 8-24 hours post-dose. Metabolites were analyzed and identified by LC/MS. The structures of the metabolites were confirmed by re-synthesis or isolation from the urine by preparative HPLC and NMR analysis. On day 6, all animals were sacrificed and gross necropsy was performed. The urine from two rats for each test compound was collected and pooled. The samples were diluted (1 mL urine in 4 mL of methanol) and analyzed by LC-MS: Waters 2695 Separations Module equipped with a Waters 2996 Photodiode Array Detector and a Waters Micromass ZQ Detector; Waters XTerra C18 3.5 μm, 20 mm×2.1 mm column, 1.0 mL/min, detection at 190-400 nm; 1.7 min gradient 10-50% A, followed by 1.8 min gradient 50-95% A, hold 1 min at 95% A; solvent A: 100% acetonitrile+0.045% formic acid; solvent B: Milli-Q water+0.1% formic acid. The urine samples were analyzed from 0-4 hours, 4-8 hours, 8-24 hours and 0-24 hours after administration. The ratio of metabolites was highly consistent within each time for each rat. The metabolites were identified by mass then re-synthesized to confirm their identity and the relative distribution was assayed using HPLC. […] See also FIGS. 1, 2A-2C, 3A-3D, and 4A-4C.

T3 sequence (P33261 whole entry): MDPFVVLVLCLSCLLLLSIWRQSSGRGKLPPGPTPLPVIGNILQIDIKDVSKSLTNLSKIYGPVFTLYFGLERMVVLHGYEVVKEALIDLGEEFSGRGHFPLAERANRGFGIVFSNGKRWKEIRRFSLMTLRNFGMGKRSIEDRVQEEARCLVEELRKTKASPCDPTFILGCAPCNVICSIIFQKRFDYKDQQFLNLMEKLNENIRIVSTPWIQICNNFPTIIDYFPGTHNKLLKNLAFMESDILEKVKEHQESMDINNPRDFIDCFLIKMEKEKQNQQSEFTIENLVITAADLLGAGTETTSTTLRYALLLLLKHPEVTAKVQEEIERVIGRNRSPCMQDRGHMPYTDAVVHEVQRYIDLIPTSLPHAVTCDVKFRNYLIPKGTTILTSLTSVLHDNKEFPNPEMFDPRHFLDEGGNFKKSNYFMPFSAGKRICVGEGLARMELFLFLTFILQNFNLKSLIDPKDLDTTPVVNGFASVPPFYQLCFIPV
T2 sequence (P08684 whole entry): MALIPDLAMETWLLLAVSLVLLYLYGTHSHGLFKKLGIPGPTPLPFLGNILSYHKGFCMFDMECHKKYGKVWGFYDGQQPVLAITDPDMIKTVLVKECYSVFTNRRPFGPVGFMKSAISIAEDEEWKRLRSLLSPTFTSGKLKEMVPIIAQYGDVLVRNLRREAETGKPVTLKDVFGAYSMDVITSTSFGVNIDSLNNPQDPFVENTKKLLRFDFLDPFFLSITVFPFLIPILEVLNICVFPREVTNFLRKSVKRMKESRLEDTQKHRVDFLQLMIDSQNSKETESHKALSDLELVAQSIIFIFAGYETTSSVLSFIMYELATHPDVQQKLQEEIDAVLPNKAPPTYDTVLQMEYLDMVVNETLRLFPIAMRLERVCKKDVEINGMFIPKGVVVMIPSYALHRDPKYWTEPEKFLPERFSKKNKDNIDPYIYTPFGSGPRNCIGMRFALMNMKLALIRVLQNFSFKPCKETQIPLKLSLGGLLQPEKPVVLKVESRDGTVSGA

Compound	IC50 (CYP1A2) [µM]	IC50 (CYP3A4) [µM]	IC50 (CYP2C19) [µM]	Urinary Glucose Excretion in Dogs, 0-8 h (mean ± SD) (beagle dogs) [mg]	Urinary Glucose Excretion in Dogs, 0-24 h (mean ± SD) (beagle dogs) [mg]	CL/F [1] [L/h/kg]	AUC(0-t) [1] [µg·h/mL]	Cmax (mean ± SD) [1] [µg/mL]	t1/2 (mean ± SD) [1] [h]	tmax (mean ± SD) [1] [h]	Distribution of Metabolites in Urine (% of total), Peak 1 (Parent) [2] [%]	Urinary Glucose Excretion in Dogs, 8-24 h (mean ± SD) (beagle dogs; 8-24 h (Table 4)) [mg]
[2H]C([2H])([2H])C([2H])([2H])Oc1ccc(Cc2cc([C@@H]3O[C@H](CO)[C@@H](O)[C@H](O)[C@H]3O)ccc2Cl)cc1 [24c, (2S,3R,4R,5S,6R)-2-(4-chloro-3-(4-(ethoxy-d5)benzyl)phenyl)-6-(hydroxymethyl)tetrahydro-2H-pyran-3,4,5-triol]	500 to 1000	500 to 1000	168	3472 ± 622	11964 ± 2190	0.133	21.2 ± 1.89	2.285 ± 0.697	6.05 ± 0.85	1.38 ± 0.75	45	
CCOc1ccc(Cc2cc([C@@H]3O[C@H](CO)[C@@H](O)[C@H](O)[C@H]3O)ccc2Cl)cc1 [Ref A, (2S,3R,4R,5S,6R)-2-(4-chloro-3-(4-ethoxybenzyl)phenyl)-6-(hydroxymethyl)tetrahydro-2H-pyran-3,4,5-triol, reference compound]	426	~400	61.1			0.27	11.3 ± 2.6	1.603 ± 0.425	4.52 ± 0.98	0.88 ± 0.75	40	
[2H]C([2H])(c1ccc(OCC)cc1)c1cc([C@@H]2O[C@H](CO)[C@@H](O)[C@H](O)[C@H]2O)ccc1Cl [compound 9, (2S,3R,4R,5S,6R)-2-(4-chloro-3-((4-ethoxyphenyl)methyl-d2)phenyl)-6-(hydroxymethyl)tetrahydro-2H-pyran-3,4,5-triol]	~500	~1000	50 to 100	3396 ± 442	10228 ± 895	0.192	15.3 ± 2.38	1.83 ± 0.365	5.14 ± 1.28	1.69 ± 0.59	55	6832 ± 2555
